≈ marks a conversion by molar mass, not a printed value. Like-named read-outs stand apart in the source and are kept apart here. Marks after values point to notes of the source that are not given here.
Legend:
[1] = tested on: Enterococcus faecium (ATCC 700221), VRE; assay: MIC assay (broth microdilution, CLSI); format: cell-based
human red blood cells = assay: Hemolysis assay with red blood cells; conditions: human, 1 h, 200 μM, pH 7.2
Description: The hemolysis activities of select compounds of the invention were determined. […] The washing was repeated three times with the buffer. In 96-well plate, test compounds were added to the buffer from DMSO stocks. […] The plate was then incubated for 1 hour at 37° C. After incubation, the plate was centrifuged for 5 minutes at 3,500 rpm. Then 80 μL of the supernatant was transferred to another 96-well plate, and the optical density (OD) was read at 405 nm. DMSO served as the negative control (0% hemolysis), while Triton X served as the positive control (100% hemolysis). The percent of hemolysis was calculated as (OD405 of the compound−OD405 of DMSO)/(OD405 of Triton X−OD405 of the buffer).
The washing was repeated three times with the buffer. In 96-well plate, test compounds were added to the buffer from DMSO stocks. […] The plate was then incubated for 1 hour at 37° C. After incubation, the plate was centrifuged for 5 minutes at 3,500 rpm. Then 80 μL of the supernatant was transferred to another 96-well plate and the optical density (OD) was read at 405 nm. DMSO served as our negative control (0% hemolysis) while Triton X served as our positive control (100% hemolysis). The percent of hemolysis was calculated as (OD405 of the test compound−OD405 DMSO)/(OD405 Triton X−OD405 buffer) from three independent experiments.

HeLa cells = assay: in vitro; format: cell-based; conditions: human, 24 h
Description: (§1) The cytotoxicities of select compounds of the invention against HeLa cells were determined. HeLa cytotoxicity was assessed using the LDH release assay described by CYTOTOX96 (Promega G1780). HeLa cells were grown in Dulbecco's Modified Eagle Medium (DMEM; Gibco) supplemented with 10% Fetal Bovine Serum (FBS) at 37° C. with 5% CO2. […] Triton X-100 (at 2% v/v) was used as the positive control for maximum lactate dehydrogenate (LDH) activity in this assay (e.g., complete cell death), while “medium only” lanes served as negative control lanes (e.g., no cell death). DMSO was used as the vehicle control. […] Finally, Stop Solution (50 μL) was added to the incubating plates, and the absorbance was measured at 490 nm.
(§2) HeLa cytotoxicity was assessed using the LDH release assay described by CYTOTOX96 (Promega G1780). HeLa cells were grown in Dulbecco's Modified Eagle Medium (DMEM; Gibco) supplemented with 10% Fetal Bovine Serum (FBS) at 37° C. with 5% CO2. […] Triton X-100 (at 2% v/v) was used as the positive control for maximum lactate dehydrogenate (LDH) activity in this assay (e.g., complete cell death), while “medium only” lanes served as negative control lanes (e.g., no cell death). DMSO was used as our vehicle control. […] Finally, Stop Solution (50 μL) was added to the incubating plates and the absorbance was measured at 490 nm. Results are from three independent experiments (FIG. 19)

in vitro = format: cell-based; conditions: human
Description: as §1, §2

MRSA BAA-1707 = assay: MIC assay (broth microdilution, CLSI); conditions: Staphylococcus aureus, read-out: MIC, MRSA BAA-1707
[2] = tested on: MRSA-2 planktonic cells and biofilms; assay: Calgary Biofilm Device (CBD) assay, MBC/MBEC; format: cell-based, Staphylococcus aureus; conditions: for MBC: Staphylococcus aureus, MRSA
[3] = tested on: MRSA-2 (methicillin-resistant Staphylococcus aureus clinical isolate); assay: MIC assay (broth microdilution, CLSI); format: cell-based; conditions: Staphylococcus aureus, MRSA, read-out: MIC, MRSA-2
[4] = tested on: Staphylococcus epidermidis (ATCC 12228); assay: MIC assay (broth microdilution, CLSI); format: cell-based; conditions: Staphylococcus epidermidis, ATCC12228
[5] = tested on: MRSA-1 (methicillin-resistant Staphylococcus aureus clinical isolate); assay: MIC assay (broth microdilution, CLSI); format: cell-based; conditions: Staphylococcus aureus, MRSA, Table 2A; read-out: MIC, MRSA-1
MRSA BAA-44 = assay: MIC assay (broth microdilution, CLSI); conditions: Staphylococcus aureus, read-out: MIC, MRSA BAA-44
[6] = tested on: Staphylococcus epidermidis (ATCC 35984), MRSE; assay: MIC assay (broth microdilution, CLSI); format: cell-based; conditions: for MIC: Staphylococcus epidermidis
[7] = tested on: VRE (E. faecium ATCC 700221) planktonic cells and biofilms; assay: Calgary Biofilm Device (CBD) assay, MBC/MBEC; format: cell-based, Enterococcus faecium; conditions: Enterococcus; Table 8; c lowest concentration tested; read-out: VRE 700221 MBC
[8] = tested on: MRSE (S. epidermidis ATCC 35984) planktonic cells and biofilms; assay: Calgary Biofilm Device (CBD) assay, MBC/MBEC; format: cell-based, Staphylococcus epidermidis; conditions: for MBC: Staphylococcus epidermidis
MRSA-2 = assay: MIC assay with Tiron or metal(II) cation co-treatment; format: cell-based, Staphylococcus aureus; conditions: Staphylococcus aureus
E. faecium 700221 (VRE) = assay: as above; format: cell-based, Enterococcus faecium; conditions: Enterococcus faecium, VRE
S. epidermidis 12228 = assay: as above; format: cell-based, Staphylococcus epidermidis; conditions: Staphylococcus epidermidis
[9] = Enterococcus faecium, Table 2A, read-out: MIC, Enterococcus faecium (ATCC 700221)
[10] = Table 7, b lowest concentration tested, read-out: MIC, VRE 700221
[11] = Table 8, a/b 2-/4-fold range in independent experiments, read-out: MRSA-2 MBC
[12] = Table 7, a midpoint of 2-fold range, b lowest concentration tested
[13] = Table 2A, read-out: MIC, Staphylococcus epidermidis (ATCC 12228)
[14] = Table 7, b lowest concentration tested, read-out: MIC, S. epidermidis 12228
[15] = Table 2A, read-out: MIC, Staphylococcus epidermidis (ATCC 35984)
[16] = Table 7, read-out: MIC, MRSE 35984
[17] = Table 8, read-out: MRSE 35984 MBC

| SMILES | MIC [1, 9] [µM] | MIC [1, 10] [µM] | % Hemolysis (200 μM) (human red blood cells) [%] | IC50 (HeLa cells) [µM] | IC50 at 24 h (in vitro) [µM] | MBC ([2]; Table 4, read-out: MBC, MRSA-2) [µM] | MBC [2, 11] [µM] | MIC ([3]; Table 2A) [µM] | MIC [3, 12] [µM] | MIC [4, 13] [µM] | MIC [4, 14] [µM] | MIC [5] [µM] | melting point [°C] | MIC (MRSA BAA-44) [µM] | MIC [6, 15] [µM] | MIC [6, 16] [µM] | % Hemolysis at 200 μM (human red blood cells) [%] | MBC [8, 17] [µM] | further results |
| --- | --- | --- | --- | --- | --- | --- | --- | --- | --- | --- | --- | --- | --- | --- | --- | --- | --- | --- | --- |
| Oc1c(Cl)cc(I)c2nc3ccccc3nc12 [Compound 6, 2-Chloro-4-iodo-1-hydroxyphenazine] | 6.25 (≈ 2.23 µg/mL) | 6.25 (≈ 2.23 µg/mL) | 5.1 | > 100 | > 100 | 15.6 (≈ 5.56 µg/mL) | 15.6 (≈ 5.56 µg/mL) | 1.56 (≈ 0.556 µg/mL) | 1.56 (≈ 0.556 µg/mL) | 1.56 (≈ 0.556 µg/mL) | 1.56 (≈ 0.556 µg/mL) | 1.56 (≈ 0.556 µg/mL) | 183 to 185 | 1.56 (≈ 0.556 µg/mL) | 1.56 (≈ 0.556 µg/mL) | 1.56 (≈ 0.556 µg/mL) |  |  | MIC (MRSA BAA-1707): 1.56 µM (≈ 0.556 µg/mL); MBEC:MBC ratio, MRSA-2 ([2]; Table 4): 8.0 |
| Oc1c(Cl)cc(Br)c2nc3ccccc3nc12 [Compound 5, 4-Bromo-2-chloro-1-hydroxyphenazine] | 6.25 (≈ 1.93 µg/mL) | 6.25 (≈ 1.93 µg/mL) | ≤1 | > 100 | > 100 | 62.5 (≈ 19.3 µg/mL) | 62.5 (≈ 19.3 µg/mL) |  |  | 3.13 (≈ 0.969 µg/mL) | 3.13 (≈ 0.969 µg/mL) |  | 229 to 231 | 3.13 (≈ 0.969 µg/mL) |  |  | ≤1 | 31.3 (≈ 9.69 µg/mL) | MBC [7]: 11.7 µM (≈ 3.62 µg/mL) |
| Oc1c(Cl)cc(Br)c2nc3cc(Br)c(Br)cc3nc12 [Compound 15, 4,7,8-Tribromo-2-chloro-1-hydroxyphenazine] | 0.39 (≈ 0.182 µg/mL) | 0.39 (≈ 0.182 µg/mL) | 2.1 | > 100 | > 100 | 25 (≈ 11.7 µg/mL) | 25 (≈ 11.7 µg/mL) | 12.5 (≈ 5.84 µg/mL) | 12.5 (≈ 5.84 µg/mL) | 0.05 to 0.1 (≈ 0.0234 to 0.0467 µg/mL) | 0.08 (≈ 0.0374 µg/mL) | 6.25 (≈ 2.92 µg/mL) | 242 to 244 | 25 (≈ 11.7 µg/mL) | 0.2 to 0.39 (≈ 0.0935 to 0.182 µg/mL) | 0.3 to 0.59 (≈ 0.14 to 0.276 µg/mL) | 2.1 | 1.56 (≈ 0.729 µg/mL) | MIC (MRSA-2; MRSA-2, 200 μM copper(II), read-out: MIC with Cu^2+): > 100 µM; MIC (MRSA-2; MRSA-2, 1 mM Tiron, read-out: MIC with Tiron): 0.2 µM; MIC (MRSA-2; MRSA-2, no additive (Table 9), read-out: MIC): 3.13 µM; MIC (E. faecium 700221 (VRE); E. faecium 700221, 200 μM CuSO4, read-out: MIC with Cu^2+): 12.5 µM; MIC (E. faecium 700221 (VRE); E. faecium 700221, 1 mM Tiron, read-out: MIC with Tiron): 0.78 µM; MIC (E. faecium 700221 (VRE); E. faecium 700221, no additive, read-out: MIC): 0.78 µM; MBC ([8]; Table 4, read-out: MBC, Staphylococcus epidermidis (ATCC 35984)): 1.56 µM (≈ 0.729 µg/mL); MBEC, Staphylococcus epidermidis (ATCC 35984) ([8]; Table 4): 3.13 µM; MIC (S. epidermidis 12228; S. epidermidis 12228, 200 μM CuSO4, read-out: MIC with Cu^2+): 50 µM; MIC (S. epidermidis 12228; S. epidermidis 12228, 1 mM Tiron, read-out: MIC with Tiron): 0.1 µM; MIC (S. epidermidis 12228; S. epidermidis 12228, no additive, read-out: MIC): 0.1 µM; MIC, MRSE 35984 ([6]; Table 7): 0.30^a μM |
| C=CCc1cc(Br)c2nc3cc(Br)c(Br)cc3nc2c1O [Compound 24, 2-Allyl-4,7,8-tribromo-1-hydroxyphenazine] |  | > 100 |  |  |  |  |  |  | > 100 |  | > 100 |  | 187 to 189 |  |  |  |  |  |  |

Source: patent publication US20180312473A1, “PHENAZINE DERIVATIVES AS ANTIMICROBIAL AGENTS” (priority 2015, published 2018)
